Results published in PubChem BioAssay (NCI).
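Dose response: 5 concentrations. Exposure: 48 h. Format: 96-well plates. Endpoint: linear interpolation; highest concentration if not reached. Here, GI50 denotes the concentration required for 50% inhibition of growth. Definition used: TGI = concentration required for complete inhibition of growth.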

How the values were obtained:
Assay in all cases: growth of human tumour cells (NCI), 48 h
HL-60(TB) leukemia = tested on: HL-60(TB) leukemia
MALME-3M melanoma = tested on: MALME-3M melanoma
HOP-92 NSCLC = tested on: HOP-92 NSCLC
CCRF-CEM leukemia = tested on: CCRF-CEM leukemia
A498 renal = tested on: A498 renal
RXF 393 renal = tested on: RXF 393 renal
OVCAR-4 ovarian = tested on: OVCAR-4 ovarian
COLO 205 colon = tested on: COLO 205 colon
MDA-MB-435 = tested on: MDA-MB-435
T-47D breast = tested on: T-47D breast

SMILES | TGI (HL-60(TB) leukemia) [µM] | TGI (MALME-3M melanoma) [µM] | TGI (HOP-92 NSCLC) [µM] | TGI (CCRF-CEM leukemia) [µM] | TGI (A498 renal) [µM] | TGI (RXF 393 renal) [µM] | TGI (OVCAR-4 ovarian) [µM] | TGI (COLO 205 colon) [µM] | GI50 (MALME-3M melanoma) [nM] | GI50 (HOP-92 NSCLC) [µM] | GI50 (CCRF-CEM leukemia) [nM] | GI50 (A498 renal) [nM] | GI50 (RXF 393 renal) [nM] | GI50 (MDA-MB-435) [nM] | TGI (MDA-MB-435) [µM] | GI50 (OVCAR-4 ovarian) [nM] | GI50 (COLO 205 colon) [nM] | GI50 (T-47D breast) [nM] | TGI (T-47D breast) [µM] | GI50 (HL-60(TB) leukemia) [nM]
CCCC1(CC(=O)O)OCCc2c1[nH]c1ccccc21 (stereo unspecified) | > 100 | > 100 | > 100 | > 100 | > 100 | > 100 | > 100 | > 100 |  |  |  |  |  |  |  |  |  |  |  | 
O=C(Nc1cccc(O)c1)C(=O)C1C(=O)NC(=S)NC1=O | > 100 | > 100 | > 100 | > 100 | > 100 | > 100 | > 100 | > 100 |  |  |  |  |  |  |  |  |  |  |  | 
CCOc1cc(C(C)(C)C)ccc1C1=N[C@H](c2ccc(Cl)cc2)[C@H](c2ccc(Cl)cc2)N1C(=O)N1CCN(CC#Cc2cccc3c2CN([C@@H]2CCC(=O)NC2=O)C3=O)CC1 |  | 0.778 | 8.51 | > 100 | 6.62 | > 51.6 | > 100 |  | 33.1 | 0.0372 | 23 | 197 | 2120 | 2750 | > 53.8 | 101 | 472 | 43.1 | 12.9 | 
[N-]=[N+]=NCCCn1c2c(c3ccc([N+](=O)[O-])cc3c1=O)C(=O)c1ccccc1-2 | > 100 |  | > 100 |  |  | 78.2 |  |  |  | 45.1 |  |  | 92.3 | > 100000 | > 100 |  |  |  |  | 10.1
C[C@]12CC=CC(=O)[C@@]1(C)CCC(=O)C2 | > 100 | > 100 | > 100 | > 100 | > 100 | > 100 | > 100 |  |  |  |  |  |  |  |  |  |  |  |  | 
Cc1ccc(S(=O)(=O)N/N=C2\CCCCC23CCC(=O)NC3)cc1 (stereo unspecified) | > 100 | > 100 |  | > 100 | > 100 | > 100 | > 100 | > 100 |  |  |  |  |  |  |  |  |  |  |  | 
N#CCC(=O)N/N=C1/C(=O)N(c2ccc(Cl)cc2)C(=O)C(=O)C1c1nc2ccccc2s1 (stereo unspecified) |  | > 100 | > 100 |  | > 100 | > 100 | > 100 | > 100 |  |  |  |  |  |  |  |  |  |  |  | 
CCCCCCCCCCCC(=O)OCCOCCOCCOCCOCCOC(=O)CCCCCCCCCCC | > 100 | > 100 | > 100 | > 100 | > 100 | > 100 | > 100 | > 100 |  |  |  |  |  |  |  |  |  |  |  | 
CC(=O)c1ccc(NC(=O)/C(CC(=O)c2sc(-c3cccnc3)nc2C)=N/NC(N)=O)cc1 | 72.9 | > 100 |  | 66.5 | > 100 |  | > 100 | 35.2 |  |  |  |  |  |  |  |  |  |  |  | 
Cn1c(Cl)c(/C=C2/C(=O)Nc3ccccc32)c2ccccc21 | 1.92 | 15.3 | > 100 | > 22.1 |  | > 19.6 | > 46.7 | 6.64 | 179 | 13.4 | 592 |  | 392 | < 43.8 | 0.152 | 2620 | 705 | 724 | 23.9 | 140
COc1cc(Nc2ncccc2C(=O)Nc2nc3ccc(F)cc3s2)cc(OC)c1OC |  | > 100 | 5.91 | > 100 | > 100 |  | > 100 | > 100 | 3270 | 1.48 | 3260 | 3450 |  | 2870 | > 100 | 2730 | 3040 | 2300 | 7.86 | 
Cc1ccc(S(=O)(=O)OC2CC=CC2)cc1 | > 100 | > 100 | > 100 | > 100 |  | > 100 | > 100 | > 100 |  |  |  |  |  |  |  |  |  |  |  | 
CC(C)(C)c1cc([N+](=O)[O-])cc([N+](=O)[O-])c1O | > 10 |  | > 10 | > 10 |  | > 10 | > 10 | > 10 |  |  |  |  |  |  | > 10 |  |  |  | > 10 | 
CC(=O)OC1OC([C@H]2c3cccc(O)c3C(=O)c3c(O)cc(C)cc32)C(O)C(O)C1O (stereo partly specified) | 0.0472 |  | 0.194 | 2.25 | 0.589 | 0.346 | > 89.2 |  |  | 0.0623 | 444 | 105 | < 26.7 | 81.7 | 2.72 | < 40.2 | 42.1 | 31.9 | > 41.1 | 15.7
NC(CCCC(N)P(=O)(O)O)P(=O)(O)O (stereo unspecified) |  | > 100 | > 100 | > 100 | > 100 | > 100 |  | > 100 |  |  |  |  |  |  |  |  |  |  |  | 
COc1ccc(C(C#N)NC23CC4CC(CC(C4)C2)C3)cc1 (stereo unspecified) | > 100 | > 100 | > 100 | > 100 |  | > 100 | > 100 | > 100 |  |  |  |  |  |  | > 100 |  |  |  | > 100 | 
C=CC[P@]1(=O)O[C@H](c2ccccc2)[C@H](C)N1C | > 100 | > 100 |  | > 100 | > 100 | > 100 | > 100 |  |  |  |  |  |  |  |  |  |  |  |  | 
O=C(O)CSCCc1ccccc1 | 1.98 | > 100 | > 100 |  | > 100 | > 100 | > 100 | > 100 |  |  |  |  |  |  | > 100 |  |  |  | > 100 | 
NC1=NN(c2ccccc2)C(=O)C1C(=O)CCC(=O)Nc1cccc(Cl)c1 (stereo unspecified) | > 100 | > 100 | > 100 | > 100 | > 100 | > 100 | > 100 | > 100 |  |  |  |  |  |  |  |  |  |  |  | 
O=C(Nc1ccc(Cl)cc1)C1C(=O)C(=O)N(c2ccc(Cl)cc2)C1=O (stereo unspecified) | > 100 | > 100 | 69.3 | > 100 | > 100 | > 100 |  | > 100 |  |  |  |  |  |  |  |  |  |  |  | 
CSC(SC)(C(=O)O)c1cc(-c2c(Cl)cccc2Cl)no1 |  | > 100 | > 100 | > 100 |  |  | > 100 | > 100 |  |  |  |  |  |  | > 100 |  |  |  | > 100 | 
Cc1cc(Cl)ccc1OCC(=O)Nc1nc2c(Cl)cccc2s1 | > 100 | > 100 | 97.5 | 35.7 | > 100 |  | > 100 | > 100 | > 100000 | 21 | 6940 | > 100000 |  | > 100000 | > 100 | 46700 | > 100000 | > 100000 | > 100 | 5630
